From PMC9403717, “Ruthenium complexes show potent inhibition of AKR1C1, AKR1C2, and AKR1C3 enzymes and anti-proliferative action against chemoresistant ovarian cancer cell line” (Frontiers in Pharmacology, 2022)
Read-outs that look alike come from different tables or passages of the source.

Target: T1, AKR1C1 (Homo sapiens, UniProt Q04828)
T1 construct: made in house
T1 sequence (Q04828 1-323): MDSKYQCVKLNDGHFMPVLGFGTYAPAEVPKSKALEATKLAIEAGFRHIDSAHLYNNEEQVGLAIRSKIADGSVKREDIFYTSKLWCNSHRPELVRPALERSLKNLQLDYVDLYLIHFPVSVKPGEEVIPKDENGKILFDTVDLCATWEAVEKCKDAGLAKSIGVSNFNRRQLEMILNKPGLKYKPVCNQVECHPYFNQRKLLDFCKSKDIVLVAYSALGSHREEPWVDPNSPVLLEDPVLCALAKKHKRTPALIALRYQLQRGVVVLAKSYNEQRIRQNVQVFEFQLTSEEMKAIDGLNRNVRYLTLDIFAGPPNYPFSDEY
Experiment: Inhibition of recombinant AKR1C1, oxidation of 1-acenaphthenol, progress-curve analysis
Assay type: biochemical
Details: for k+3: irreversible binding of second inhibitor molecule to E-NADH-I; for k+2: irreversible binding of second inhibitor molecule to E-NAD-I
Description: To investigate the effect of ten selected ruthenium compounds, we measured their effect on the time course of oxidation of the artificial substrate 1-acenaphtenol by recombinant enzymes AKR1C1–3. The recombinant enzymes AKR1C1–AKR1C3 were prepared as described previously ([Brozic et al., 2006]). Since the artificial substrate is racemic, the oxidation follows a double exponential pattern as described previously ([Traven et al., 2015]). The in vitro catalytic activity of AKR1C1–3 enzymes was determined spectrophotometrically by monitoring the increase in NADH absorbance at 340 nm (ε(λ340) = 6220 M^−1cm^−1) in the presence of the substrate 1-acenaphthenol. Enzymatic reactions (300 µL) were performed in 100 mm potassium phosphate buffer (pH 9.0), 0.005% (v/v) TritonX-114, 5% (v/v) DMSO, containing 2.3 mm NAD^+ and 1-acenaphthenol at final concentrations of 90, 180, and 250 µM for AKR1C1, AKR1C2, and AKR1C3, respectively. A total of 5 µL of a tested compound in DMSO was added to the reaction mixture. The final concentrations of the tested compounds ranged from 1 to 200 μM, depending on the extent of inhibition (Supplementary Data). The reaction was started by adding 15 µL of AKR1C1, AKR1C2, or AKR1C3 dissolved in 1x PBS (pH 7.3) at final concentrations of 0.11, 0.16, and 1.5 µM, respectively. AKR1C1–3 activity was measured at 37°C for 3 h without shaking using a PowerWave XS microplate reader (Biotek; Winooski, VT, United States). Measurements at seven different concentrations were performed in duplicates or triplicates (Supplementary Figures S2). To mechanistically explain all the obtained progress curves for each ruthenium complex on each enzyme by a common reaction scheme, we extended the originally proposed scheme so that the interaction of the ruthenium complex with apo- and holoenzyme was allowed to be rapid and followed by a slow irreversible association of a second ruthenium complex molecule. However, the affinity of the Ru complexes for the apoenzymes was much lower so this part was excluded from the proposed kinetic model for clarity (Figure 4).
FIGURE 4 Reaction scheme for the oxidation of 1-acenaphtenol by AKR1C1-3 and its inhibition by ruthenium compounds. E represents apoenzyme, E-NAD and E-NADH represent holoenzyme with bound NAD^+ and NADH, respectively. A and B are enantiomers of substrate 1-acenaphtenol. Symbols which include I (ruthenium compound) represent holoenzyme in complex with one or two inhibitor molecules. KNAD, KNADH, and K2-3 are equilibrium constants and k+2–3 are second-order association rate constants for the binding of the second inhibitor molecule to the enzyme. The progress curves for each enzyme in the presence of ruthenium complexes were analyzed by the WEB server ENZO (https://enzo.cmm.ki.si/) designed exactly for such purposes ([Bevc et al., 2011]).

[1] = reversible binding to holoenzyme E-NADH, read-out: K3
[2] = reversible binding to holoenzyme E-NAD, read-out: K2

In the case of `Cc1ccc(C(C)C)cc1.O=C(C=C([O][Ru][Cl])c1ccc(I)cc1)C(F)(F)F` [Compound 1], the “k+3” value is reported as 9.4 M⁻¹ s⁻¹ and the Ki [1] is reported as 21.4 nM.
With `C1N2CN3CN1CP(C2)C3.Cc1ccc(C(C)C)cc1.F[P-](F)(F)(F)(F)F.O=C(C=C([O][Ru+])c1ccc(I)cc1)C(F)(F)F` [Compound 2] the “k+2” value was 25.9 M⁻¹ s⁻¹ and the Ki [2] was 2800 nM.
In the case of `CN(C)c1ccc(C(=CC(=O)C(F)(F)F)[O][Ru][Cl])cc1.Cc1ccc(C(C)C)cc1` [Compound 3, (η^6-p-cymene)chlorido(4,4,4-trifluoro-1-(4-(dimethylamino)phenyl)-1,3-butandionato)ruthenium(II)], the “k+2” value is reported as 31.5 M⁻¹ s⁻¹, the “k+3” value is reported as 4.3 M⁻¹ s⁻¹ and the Ki [2] is reported as 107000 nM. The Ki [1] was 42.9 nM.
With `Cc1ccc(C(C)C)cc1.O=C(C=C([O][Ru][Cl])c1ccc2c(c1)OCO2)C(F)(F)F` [Compound 5] the “k+3” value was 6.0 M⁻¹ s⁻¹ and the Ki [1] was 23.5 nM.
In the case of `C1N2CN3CN1CP(C2)C3.Cc1ccc(C(C)C)cc1.F[P-](F)(F)(F)(F)F.O=C(C=C([O][Ru+])c1ccc2c(c1)OCO2)C(F)(F)F` [Compound 6], the “k+2” value is reported as 48.8 M⁻¹ s⁻¹ and the Ki [2] is reported as 3100 nM.
`Cc1ccc(C(C)C)cc1.[Cl-].[O-]c1c(I)cc(Cl)c2cccnc12.[Ru+2]` [Compound 7] was tested, and the “k+3” value was 17.1 M⁻¹ s⁻¹ and the Ki [1] was 345 nM.
With `C1N2CN3CN1CP(C2)C3.Cc1ccc(C(C)C)cc1.F[P-](F)(F)(F)(F)F.[O-]c1c(I)cc(Cl)c2cccnc12.[Ru+2]` [Compound 8] the Ki [2] was 350 nM.
In the case of `Cc1ccc(C(C)C)cc1.O=[N+]([O-])c1ccc([O][Ru][Cl])c2ncccc12` [Compound 9, (η ^6-p-Cymene) (nitroxolinato)chloridoruthenium (II)], the “inhibitory effect (in words)” value is reported as “very weak inhibitory effect”, the “irreversible inhibition (in words)” value is reported as “virtually no irreversible inhibition” and the Ki [2] is reported as 227000 nM.
`C1N2CN3CN1CP(C2)C3.Cc1ccc(C(C)C)cc1.F[P-](F)(F)(F)(F)F.O=[N+]([O-])c1ccc([O][Ru+])c2ncccc12` [Compound 10, (η ^6-p-cymene)(nitroxolinato)(pta)ruthenium(II) hexafluorophosphate] was tested, and the “k+2” value was 13.5 M⁻¹ s⁻¹ and the Ki [2] was 49700 nM.
